Measurements taken from patent US8563565B2, “Pyrazoloquinoline derivatives” (Eisai R&D Management Co., Ltd., priority 2011, dated 2013).

target: T1, human recombinant PDE9 protein (Homo sapiens, UniProt O76083); test: PDE9 inhibitory activity test (measurement of PDE9 inhibitory action, [3H]-cGMP); format: biochemical; settings: PDE9 IC50, human recombinant PDE9, 30° C., 10 min
T1 construct: His-tag (inferred from the Ni column purification; a myc His-tag vector is named only for the HEK293 expression check); made in house; host or cells: silkworm (pYNG vector, Katakura Industries)
T1 sequence (O76083 whole entry): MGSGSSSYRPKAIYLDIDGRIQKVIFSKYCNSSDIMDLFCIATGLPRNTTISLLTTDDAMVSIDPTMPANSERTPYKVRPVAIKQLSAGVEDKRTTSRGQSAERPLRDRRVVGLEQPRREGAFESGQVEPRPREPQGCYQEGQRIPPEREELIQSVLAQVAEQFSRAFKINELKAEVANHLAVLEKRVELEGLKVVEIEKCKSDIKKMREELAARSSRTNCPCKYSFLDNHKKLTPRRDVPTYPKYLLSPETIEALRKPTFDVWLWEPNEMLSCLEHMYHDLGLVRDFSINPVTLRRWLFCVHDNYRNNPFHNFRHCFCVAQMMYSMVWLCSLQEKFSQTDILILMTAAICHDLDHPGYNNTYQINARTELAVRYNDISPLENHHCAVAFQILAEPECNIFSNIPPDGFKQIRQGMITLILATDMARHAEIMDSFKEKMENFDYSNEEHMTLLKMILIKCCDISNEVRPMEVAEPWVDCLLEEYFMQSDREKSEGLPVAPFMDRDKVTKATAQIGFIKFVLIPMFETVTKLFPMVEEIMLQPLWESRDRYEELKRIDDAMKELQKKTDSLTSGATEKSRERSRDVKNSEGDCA
Source text: 1) Preparation of a Human Recombinant PDE9 Protein
An hsPDE9A 1cDNA fragment was amplified by being based on a base sequence (Accession No.: AF048837) of the hsPDE9A1 registered on GenBank data base, and by using the following sequences (Hokkaido System Science Co., Ltd.) as a primer and Human hippocampus cDNA library (Clontech Laboratories, Inc.) as a template DNA, and using Pfu50 DNA polymerase (Invitrogen Corp.), and by a polymerase chain reaction (PCR) of the following condition.
The condition of PCR: [96° C., 5 min]×1 cycle, [(96° C., 10 sec), (57° C., 5 sec), (72° C., 2 min)]×30 cycles
The obtained hsPDE9A 1 cDNA fragment was incorporated in a TOPO-TA cloning vector (Invitrogen Corp.), and the base sequence was checked; and thereafter, the resultant was transfected in a pcDNA 3.1/myc His-tag vector (Invitrogen Corp.) to thereby make a human PDE9 expression vector for mammal cells. The human PDE9 expression vector for mammal cells was transfected with transient expression to an HEK293 cell by using a LIPOFETAMINE 2000 Reagent (Gibco). It was confirmed by Western blot method that the PDE9A expressed in the HEK293 cell, and then, the human PDE9A 1cDNA fragment was transfected in a pYNG vector (Katakura Industries Co., Ltd.) to thereby make an expression vector for insect cells. A supernatant of homogenized silk worm in which a large amount of PDE9 was expressed was purified by an equilibrated Ni column using a buffer A (20 mmol/L Tris-HCl, pH: 8.0, 1 mmol/L DTT, 10 mmol/L imidazole). After 1 hour of mixing of the supernatant and the Ni column, cleaning was carried out using a buffer B (20 mmol/L Tris-HCl, pH: 8.0, 1 mmol/L […]), and elution was carried out using a buffer C (20 mmol/L Tris-HCl, pH: 8.0, 1 mmol/L DTT, 100 mmol/L imidazole). An elution fraction was preparatively collected to thereby obtain a PDE9 enzyme solution.
2) Measurement of PDE9 Inhibitory Action
To 100 μL of a buffer D (40 mmol/L Tris-HCl, pH: 7.4, 10 mmol/L MgCl2, 1 mM DTT, 2 μM cGMP) solution containing [^3H]-cGMP ([…]/mL), 10 μL of a compound solution for evaluation (a solution in which a compound was dissolved in DMSO and diluted so that the DMSO concentration became 5%) and 90 μL of a solution prepared by diluting the PDE9 enzyme solution prepared in the above with a buffer E (40 mmol/L Tris-HCl, pH: 7.4, 10 mmol/L MgCl2, 1 mM DTT, 1 mmol/L EGTA) were added under ice cooling. The resultant mixed solution was incubated at 30° C. for 10 min, and thereafter heated for 2 min in boiled water to stop the enzyme reaction of the PDE9. Then, the resultant was returned to room temperature; 50 μL of 5′-Nucleotidase (Biomol GmbH, 10 units/mL) was added thereto; and the resultant was incubated at 30° C. for 10 min to thereby convert [^3H]-5′-GMP formed in the previous reaction to [^3H]-guanosine. 500 μL of an anion exchange resin (Bio-Rad AG1-X2 resin, mesh size: 200-400, H2O:resin=2:1) was added to the resultant reaction liquid, and allowed to stand for 10 min, and thereafter centrifuged (2,000 rpm, 10 min); and a supernatant in which the [^3H]-guanosine was present was transferred to a LumaPlate (PerkinElmer, Inc.), and the radioactivity was measured by a TopCount NXT microplate scintillation and luminescence counter (PerkinElmer, Inc.).
The inhibition percentage of the evaluation compound was calculated using the following expression, taking the radioactivity of a control containing no evaluation compound to be (A), the radioactivity of a blank containing no enzyme to be (B), and the radioactivity of the evaluation compound to be (C). Inhibition percentage=100−{[(C)−(B)]/[(A)−(B)]}×100(%)
The IC50 value for PDE9 of the evaluation compound was determined from inhibition percentage for various concentrations.

| Compound | IC50 |
| --- | --- |
| COc1nc(C)cc(C)c1-c1ccc2c(c1)[nH]c(=O)c1cnn(C3CCCOC3)c12 (single isomer, unassigned; (-)) [34 (−), (−)-7-(2-methoxy-4,6-dimethylpyridin-3-yl)-1-(tetrahydro-2H-pyran-3-yl)-1H-pyrazolo[4,3-c]quinolin-4(5H)-one] | 3.36 nM |
| COc1cc(C)c(-c2ccc3c(c2)[nH]c(=O)c2cnn(C4CCOC4)c23)c(CF)n1 (stereo not drawn) [30 (+)] | 225 nM |
| COc1nc(CF)cc(C)c1-c1ccc2c(c1)[nH]c(=O)c1cnn(C3CCCOC3)c12 (single isomer, unassigned) [35 (−)] | 2.96 nM |
| COc1nccc(C)c1-c1ccc2c(c1)[nH]c(=O)c1cnn(C3CCCOC3)c12 (single isomer, unassigned) [39 (+)] | 5.07 nM |
| Cc1cc(Cl)c(-c2ccc3c(c2)[nH]c(=O)c2cnn(C4CCOCC4)c23)c(C)n1 [Example 9] | 21.7 nM |
| COc1cc(C)c(-c2ccc3c(c2)[nH]c(=O)c2cnn(C4CCCOC4)c23)c(C)n1 (single isomer, unassigned) [37 (−)] | 10.1 nM |
| COc1ncc(C)c(-c2ccc3c(c2)[nH]c(=O)c2cnn([C@@H]4CCOC4)c23)c1C [25 (+)R] | 41 nM |
| COc1ncc(C)c(-c2ccc3c(c2)[nH]c(=O)c2cnn([C@H]4CCOC4)c23)c1C [25 (−)S] | 9.43 nM |
| Cc1cc(F)nc(C)c1-c1ccc2c(c1)[nH]c(=O)c1cnn(C3CCOCC3)c12 [Example 8] | 25.2 nM |
| COc1nc(C)cc(C)c1-c1ccc2c(c1)[nH]c(=O)c1cnn(C3CCCOC3)c12 (single isomer, unassigned; (+)) [34 (+), (+)-7-(2-methoxy-4,6-dimethylpyridin-3-yl)-1-(tetrahydro-2H-pyran-3-yl)-1H-pyrazolo[4,3-c]quinolin-4(5H)-one] | 3.88 nM |
| COc1nccc(C)c1-c1ccc2c(c1)[nH]c(=O)c1cnn(C3CCOC3)c12 (single isomer, unassigned) [32 (+)] | 70.7 nM |
| COc1cc(C)c(-c2ccc3c(c2)[nH]c(=O)c2cnn(C4CCCOCC4)c23)c(C)c1 (single isomer, unassigned) [42 (+)] | 8.81 nM |
| COc1ncc(C)c(-c2ccc3c(c2)[nH]c(=O)c2cnn(C4CCCOCC4)c23)c1C (single isomer, unassigned; (+)) [41 (+), (+)-7-(2-methoxy-3,5-dimethylpyridin-4-yl)-1-(oxepan-4-yl)-1H-pyrazolo[4,3-c]quinolin-4(5H)-one] | 5.91 nM |
| Cc1cccc(C)c1-c1ccc2c(c1)[nH]c(=O)c1cnn(C3CCOC3)c12 (single isomer, unassigned; (+)) [33 (+), (+)-7-(2,6-dimethylphenyl)-1-(tetrahydrofuran-3-yl)-1H-pyrazolo[4,3-c]quinolin-4(5H)-one] | 113 nM |
| COc1cc(C)c(-c2ccc3c(c2)[nH]c(=O)c2cnn(C4CCCOC4)c23)c(C)n1 (single isomer, unassigned) [37 (+)] | 10.9 nM |
| COc1ncc(C)c(-c2ccc3c(c2)[nH]c(=O)c2cnn(C4CCCOCC4)c23)c1C (single isomer, unassigned; (-)) [41 (−), (−)-7-(2-methoxy-3,5-dimethylpyridin-4-yl)-1-(oxepan-4-yl)-1H-pyrazolo[4,3-c]quinolin-4(5H)-one] | 12.1 nM |
| COc1nc(CF)cc(C)c1-c1ccc2c(c1)[nH]c(=O)c1cnn(C3CCCOC3)c12 (single isomer, unassigned) [35 (+)] | 2.62 nM |
| Cc1cccc(C)c1-c1ccc2c(c1)[nH]c(=O)c1cnn(C3CCOCC3)c12 [Example 1, 7-(2,6-dimethylphenyl)-1-(tetrahydro-2H-pyran-4-yl)-1H-pyrazolo[4,3-c]quinolin-4(5H)-one] | 24.3 nM |
| COc1cc(C)c(-c2ccc3c(c2)[nH]c(=O)c2cnn(C4CCCOC4)c23)c(CF)n1 (single isomer, unassigned) [38 (+)] | 17.1 nM |
| COc1ncc(C)c(-c2ccc3c(c2)[nH]c(=O)c2cnn(C4CCCOC4)c23)c1C (single isomer, unassigned) [36 (+)] | 8.98 nM |
| COc1nccc(C)c1-c1ccc2c(c1)[nH]c(=O)c1cnn(C3CCCOC3)c12 (single isomer, unassigned) [39 (−)] | 4.08 nM |
| COc1nc(C)cc(C)c1-c1ccc2c(c1)[nH]c(=O)c1cnn(C3CCOC3)c12 (single isomer, unassigned) [28 (+)] | 29.6 nM |

Continued, values first:

| IC50 | Compound |
| --- | --- |
| 4.77 nM | COc1nc(C)cc(C)c1-c1cc2[nH]c(=O)c3cnn(C4CCOCC4)c3c2cc1F [Example 52, 8-fluoro-7-(2-methoxy-4,6-dimethylpyridin-3-yl)-1-(tetrahydro-2H-pyran-4-yl)-1H-pyrazolo[4,3-c]quinolin-4(5H)-one] |
| 18.1 nM | COc1cc(C)c(-c2ccc3c(c2)[nH]c(=O)c2cnn(C4COCCOC4)c23)c(C)n1 [Example 46] |
| 11.7 nM | COc1nc(C)cc(C)c1-c1cc2[nH]c(=O)c3cnn([C@@H]4CCOC4)c3c2cc1F [Example 58] |
| 52.3 nM | COc1cc(CF)c(-c2ccc3c(c2)[nH]c(=O)c2cnn(C4CCOCC4)c23)c(C)n1 [Example 22] |
| 71.5 nM | COc1cc(C)c(-c2cc3[nH]c(=O)c4cnn([C@@H]5CCOC5)c4c3cc2F)c(C)n1 [Example 59] |
| 11.3 nM | COc1nc(C)c(Cl)c(C)c1-c1ccc2c(c1)[nH]c(=O)c1cnn(C3CCOCC3)c12 [Example 11] |
| 6.08 nM | COc1nc(CF)cc(C)c1-c1ccc2c(c1)[nH]c(=O)c1cnn(C3CCOCC3)c12 [Example 17] |
| 10.1 nM | CCc1c(OC)ncc(C)c1-c1ccc2c(c1)[nH]c(=O)c1cnn([C@H]3CCOC3)c12 [Example 56, (S)-7-(3-ethyl-2-methoxy-5-methylpyridin-4-yl)-1-(tetrahydrofuran-3-yl)-1H-pyrazolo[4,3-c]quinolin-4(5H)-one] |
| 36.7 nM | Cc1cc(C#N)nc(C)c1-c1ccc2c(c1)[nH]c(=O)c1cnn(C3CCOCC3)c12 [Example 13] |
| 13 nM | Cc1cc(CF)nc(C)c1-c1ccc2c(c1)[nH]c(=O)c1cnn(C3CCOCC3)c12 [Example 19] |
| 8.35 nM | Cc1cnc(OC(C)C)c(C)c1-c1ccc2c(c1)[nH]c(=O)c1cnn([C@H]3CCOC3)c12 [Example 48, (S)-7-(2-isopropyloxy-3,5-dimethylpyridin-4-yl)-1-(tetrahydrofuran-3-yl)-1H-pyrazolo[4,3-c]quinolin-4(5H)-one] |
| 12.1 nM | COc1cc(C)c(-c2ccc3c(c2)[nH]c(=O)c2cnn(C4COCCOC4)c23)c(C)c1 [Example 44] |
| 28.9 nM | Cc1cc(C)c(-c2ccc3c(c2)[nH]c(=O)c2cnn(C4CCOCC4)c23)c(CF)n1 [Example 20] |
| 9.51 nM | CCOc1nccc(C)c1-c1ccc2c(c1)[nH]c(=O)c1cnn(C3CCOCC3)c12 [Example 23, 7-(2-ethoxy-4-methylpyridin-3-yl)-1-(tetrahydro-2H-pyran-4-yl)-1H-pyrazolo[4,3-c]quinolin-4(5H)-one] |
| 21.2 nM | COc1nc(C)c(-c2ccc3c(c2)[nH]c(=O)c2cnn(C4CCOCC4)c23)c(OC)n1 [Example 14] |
| 20.8 nM | COc1ncc(Cl)c(C)c1-c1ccc2c(c1)[nH]c(=O)c1cnn(C3CCOCC3)c12 [Example 10] |
| 31.1 nM | COc1nc(C)cc(C)c1-c1ccc2c(c1)[nH]c(=O)c1cnn([C@@H]3COC[C@H]3OC)c12 (racemic) [Example 60, 7-(2-methoxy-4,6-dimethylpyridin-3-yl)-1-[(3RS,4SR)-4-methoxytetrahydrofuran-3-yl]-1H-pyrazolo[4,3-c]quinolin-4(5H)-one] |
